IC50 data for 21 molecules are collected here from patent US8389557B2, “Triazole derivatives useful as Axl inhibitors” (Rigel Pharmaceuticals, Inc., priority 2005, dated 2013).

Where a name gives a salt, the structure may show the parent alone. Bounds are passed on as bounds.

The target of the first assay is T1, Axl (Homo sapiens, UniProt P30530).
T1 construct: endogenous in cells; host or cells: HeLa cells
T1 sequence (P30530 26-894): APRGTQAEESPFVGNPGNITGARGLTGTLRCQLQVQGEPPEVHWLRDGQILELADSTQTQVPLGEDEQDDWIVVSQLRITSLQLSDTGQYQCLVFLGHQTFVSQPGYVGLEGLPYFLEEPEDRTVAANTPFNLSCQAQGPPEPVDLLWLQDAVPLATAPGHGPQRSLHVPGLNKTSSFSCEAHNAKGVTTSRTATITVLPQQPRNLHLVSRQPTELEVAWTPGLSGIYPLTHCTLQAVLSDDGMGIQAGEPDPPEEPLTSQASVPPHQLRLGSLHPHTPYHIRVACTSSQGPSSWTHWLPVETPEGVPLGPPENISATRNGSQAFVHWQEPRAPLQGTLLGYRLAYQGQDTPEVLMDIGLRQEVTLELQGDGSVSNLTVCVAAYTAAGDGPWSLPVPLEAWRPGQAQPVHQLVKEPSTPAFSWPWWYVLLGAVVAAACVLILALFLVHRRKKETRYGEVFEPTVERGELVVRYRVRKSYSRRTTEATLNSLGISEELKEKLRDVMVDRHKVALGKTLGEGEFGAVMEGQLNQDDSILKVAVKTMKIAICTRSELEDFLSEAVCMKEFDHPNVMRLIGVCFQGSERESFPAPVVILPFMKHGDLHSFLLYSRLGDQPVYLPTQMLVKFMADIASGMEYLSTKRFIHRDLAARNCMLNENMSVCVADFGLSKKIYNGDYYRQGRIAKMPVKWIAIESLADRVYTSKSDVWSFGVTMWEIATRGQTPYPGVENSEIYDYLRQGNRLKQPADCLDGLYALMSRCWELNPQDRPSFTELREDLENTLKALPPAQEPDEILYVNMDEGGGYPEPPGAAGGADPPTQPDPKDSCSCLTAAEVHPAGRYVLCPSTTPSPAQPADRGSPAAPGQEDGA
The assay can be described thus: Phospho-Akt in-cell Western assay (inhibition of Axl activity). Format: cell-based. As to conditions: Table 7; Hela cells, Axl antibody cross-linking stimulation, phospho-Akt chemiluminescence. The protocol: The compounds of the invention were tested in the following assay for their ability to inhibit Axl activity.
Phospho-Akt in-Cell Western Assay
• Cell culture plate: 96 well assay plate (Corning 3610), white, clear bottom, tissue-culture treated. • Cells: Hela cells. • Starvation medium: For Axl stimulation: 0.5% FCS (fetal calf serum) in DMEM, plus Axl/Fc (extracellular domain of AXL fused to immunoglobulin Fc region) (R&D, 154-AL) 500 ng/mL. • For EGF (epidermal growth factor) stimulation: 0.5% FCS in DMEM (Dulbecco's modified Eagles medium). • Poly-L-Lysine 0.01% solution (the working solution): 10 μg/ml, dilute In PBS (phosphate buffered saline). • Axl antibody cross-linking: • 1st: Mouse anti-Axl (R&D, MAB154). • 2nd: Biotin-SP-conjugated AffiniPure goat anti-mouse IgG (H+L) (Jackson ImmunoResearch #115-065-003). • Fixing buffer: 4% formaldehyde in PBS. • Wash buffer: 0.1% TritonX-100 in PBS. • Quenching buffer: 3% H2O2, 0.1% Azide in wash buffer, Azide and hydrogen peroxide (H2O2) are added fresh. • Blocking buffer: 5% BSA in TBST (tris buffered saline plus 0.1% Tween 20). • Primary antibody: Rabbit anti-human Phospho-Akt antibody (Cell Signaling 9271): 1×250 diluted in blocking buffer. • Secondary antibody: HRP (horse radish peroxidase)-conjugated Goat anti-Rabbit secondary, stock solution: Jackson ImmunoResearch (Goat anti-Rabbit HRP, #111-035-144) 1:1 diluted in glycerol, store at −20° C. The working solution: 1×2000 dilution of stock in blocking buffer. • Chemiluminescent working solution (Pierce, 37030): SuperSignal ELISA (enzyme linked immunosorbant assay) Pico Chemiluminescent substrate. • Crystal Violet solution: Stock: 2.5% Crystal violet in methanol, filtered and kept at ambient temperature. The working solution: dilute the stock 1:20 with PBS immediately before use. • 10% SDS: working solution: 5% SDS (sodium dodecylsulfate), diluted in PBS Methods: Day 1:
A 96 well TC (tissue culture treated) plate was coated with 10 μg/mL poly-L-Lysine at 37° C. for 30 min, washed twice with PBS, and air-dried for 5 minutes before cells were added. Hela cells were seeded at 10,000 cells/well and the cells were starved in 100 μL starvation medium containing Axl/Fc for 24 hrs.
The cells were pre-treated with test compounds by adding 100 μL of 2× test compound to the starvation medium on the cells. The cells were incubated at 37° C. for 1 hr before stimulation.
The cells were stimulated by Axl-antibody cross-linking as follows: A 5×1st/2nd Axl antibody mixture was made (37.5 μg/mL 1st/100 μg/mL 2nd) in starvation medium and nutated at 4° C. with thorough mixing for 1-2 hours for clustering. The resulting mix was warmed to 37° C. 50 μL of 5× Axl 1st/2nd of antibody cluster was added to the cells and the cells were incubated at 37° C. for 5 min.
After 5 minutes stimulation, the plate was flicked to remove medium and the plate was tapped onto paper towels. Formaldehyde (4.0% in PBS, 100 μL) was added to fix the cells and the cells were incubated at ambient temperature for 20 min without shaking.
The cells were washed with a plate washer buffer to remove the formaldehyde solution. The plate was flicked to removed excess wash buffer and tapped onto paper towels. Quenching buffer (100 μL) was added to each well and the cells were incubated at ambient temperature for 20 minutes without shaking.
The cells were washed with a plate washer buffer to remove the quenching buffer. Blocking buffer (100 μL) was added and the cells were incubated at ambient temperature for at least an hour with gentle shaking.
The cells were washed with a plate washer buffer and diluted primary antibody (50 μL) was added to each well (blocking buffer was added to the negative control wells instead). The plates were incubated overnight at 4° C. with gentle shaking.
The wash buffer was removed, diluted secondary antibody (100 μL) was added, and the cells were incubated at ambient temperature for 1 hour with gentle shaking. […]
`Cc1cccc(NC(=O)n2nc(Nc3ccc(OCCN4CCCCC4)cc3)nc2N)c1` [compound 29, 5-amino-N-(3-methylphenyl)-3-[4-[2-(piperidin-1-yl)ethoxy]phenylamino]-1H-1,2,4-triazole-1-carboxamide] gave an IC50 of less than 1000 nM.

The molecule `COc1cccc(NC(=O)n2nc(Nc3ccc(OCCN4CCCCC4)cc3)nc2N)c1` [compound 30, 5-amino-N-(3-methoxyphenyl)-3-[4-[2-(piperidin-1-yl)ethoxy]phenylamino]-1H-1,2,4-triazole-1-carboxamide] returned an IC50 of less than 1000 nM.

`Cc1cccc(NC(=O)n2nc(Nc3ccc(OCCN4CCCC4)cc3)nc2N)c1` [compound 31, 5-amino-N-(3-methylphenyl)-3-[4-[2-(pyrrolidin-1-yl)ethoxy]phenylamino]-1H-1,2,4-triazole-1-carboxamide]: the IC50 is less than 1000 nM.

`COc1cccc(NC(=O)n2nc(Nc3ccc(OCCN4CCCC4)cc3)nc2N)c1` [compound 32, 5-amino-N-(3-methoxyphenyl)-3-[4-[2-(pyrrolidin-1-yl)ethoxy]phenylamino]-1H-1,2,4-triazole-1-carboxamide] had an IC50 of less than 1000 nM.

In the case of `COc1cc(NC(=O)n2nc(Nc3ccc(OCCN4CCCCC4)cc3)nc2N)cc(OC)c1` [compound 33, 5-amino-N-(3,5-(dimethoxy)phenyl)-3-[4-[2-(piperidin-1-yl)ethoxy]phenylamino]-1H-1,2,4-triazole-1-carboxamide], the IC50 was less than 1000 nM.

Molecule `COc1cc(NC(=O)n2nc(Nc3ccc(OCCN4CCCC4)cc3)nc2N)cc(OC)c1` [compound 34, 5-amino-N-(3,5-(dimethoxy)phenyl)-3-[4-[2-(pyrrolidin-1-yl)ethoxy]phenylamino]-1H-1,2,4-triazole-1-carboxamide] came in with an IC50 of less than 1000 nM.

In turn, `Nc1nc(Nc2ccc(OCCN3CCCCC3)cc2)nn1C(=O)Nc1ccc2c(c1)OCO2` [compound 35, 5-amino-N-(1,3-benzodioxol-5-yl)-3-[4-[2-(piperidin-1-yl)ethoxy]phenylamino]-1H-1,2,4-triazole-1-carboxamide] showed an IC50 of 1000 to 10000 nM.

Turning to `Nc1nc(Nc2ccc(OCCN3CCCC3)cc2)nn1C(=O)Nc1ccc2c(c1)OCO2` [compound 36, 5-amino-N-(1,3-benzodioxol-5-yl)-3-[4-[2-(pyrrolidin-1-yl)ethoxy]phenylamino]-1H-1,2,4-triazole-1-carboxamide], the IC50 lay in the range of 1000 to 10000 nM.

In the case of `Cc1ccc(NC(=O)n2nc(Nc3ccc(OCCN4CCCC4)cc3)nc2N)cc1` [compound 37, 5-amino-N-(4-methylphenyl)-3-[4-[2-(pyrrolidin-1-yl)ethoxy]phenylamino]-1H-1,2,4-triazole-1-carboxamide], the IC50 is 1000 to 10000 nM.

As to `Cc1ccc(NC(=O)n2nc(Nc3ccc(OCCN4CCCCC4)cc3)nc2N)cc1C` [compound 38, 5-amino-N-(3,4-(dimethyl)phenyl)-3-[4-[2-(piperidin-1-yl)ethoxy]phenylamino]-1H-1,2,4-triazole-1-carboxamide], the IC50 was 1000 to 10000 nM.

On to `Cc1ccc(NC(=O)n2nc(Nc3ccc(OCCN4CCCCC4)cc3)nc2N)cc1` [compound 39, 5-amino-N-(4-methylphenyl)-3-[4-[2-(piperidin-1-yl)ethoxy]phenylamino]-1H-1,2,4-triazole-1-carboxamide], for which the IC50 is 1000 to 10000 nM.

Take `COc1ccc(NC(=O)n2nc(Nc3ccc(OCCN4CCCCC4)cc3)nc2N)cc1` [compound 40, 5-amino-N-(4-(methoxy)phenyl)-3-[4-[2-(piperidin-1-yl)ethoxy]phenylamino]-1H-1,2,4-triazole-1-carboxamide]: the concentration for half-maximal inhibition (IC50) was in the range of 1000 to 10000 nM.

`CC(C)c1ccc(NC(=O)n2nc(Nc3ccc(OCCN4CCCCC4)cc3)nc2N)cc1` [compound 41, 5-amino-N-(4-(iso-propyl)phenyl)-3-[4-[2-(piperidin-1-yl)ethoxy]phenylamino]-1H-1,2,4-triazole-1-carboxamide] returned an IC50 of 1000 to 10000 nM.

For `Nc1nc(Nc2ccc(OCCN3CCCCC3)cc2)nn1C(=O)NC1CCCCC1` [compound 42, 5-amino-N-cyclohexyl-3-[4-[2-(piperidin-1-yl)ethoxy]phenylamino]-1H-1,2,4-triazole-1-carboxamide], the IC50 is 1000 to 10000 nM.

Still in this assay, the particulars now being: inhibition of Axl activity, Table 1.
As to `Cc1ccc(C(=O)n2nc(Nc3ccc(O)cc3)nc2N)cc1` [(Ia-4), 5-amino-3-[4-(hydroxy)phenylamino]-1-(4-methylphenyl)carbonyl-1H-1,2,4-triazole], the IC50 was greater than 20000 nM.

For the molecule `Cc1ccccc1C(=O)n1nc(Nc2cccc(O)c2)nc1N` [(Ia-6), 5-amino-3-[3-(hydroxy)phenylamino]-1-(2-(methyl)phenyl)carbonyl-1H-1,2,4-triazole], the IC50 was greater than 20000 nM.

Consider `Cc1cccc(C(=O)n2nc(Nc3cccc(O)c3)nc2N)c1` [(Ia-7), 5-amino-3-[3-(hydroxy)phenylamino]-1-(3-(methyl)phenyl)carbonyl-1H-1,2,4-triazole], for which the IC50 was 1000 to 10000 nM.

Take `Cc1ccc(C(=O)n2nc(Nc3cccc(O)c3)nc2N)cc1` [(Ia-15), 5-amino-3-[3-(hydroxy)phenylamino]-1-(4-(methyl)phenyl)carbonyl-1H-1,2,4-triazole]: the 50% inhibitory concentration (IC50) is 10000 to 20000 nM.

In turn, `CC(C)Oc1ccc(C(=O)n2nc(Nc3cccc(OCC#N)c3)nc2N)cc1` [(Ia-21), 5-amino-3-[3-(cyanomethoxy)phenylamino]-1-(4-(iso-propoxy)phenyl)carbonyl-1H-1,2,4-triazole] gave an IC50 of 1000 to 10000 nM.

With `Nc1nc(Nc2cccc(OCCN3CCOCC3)c2)nn1C(=O)c1ccccc1` [(Ia-26), 5-amino-3-[3-[2-(morpholin-4-yl)ethoxy]phenylamino]-1-phenylcarbonyl-1H-1,2,4-triazole, hydrogen chloride salt], the IC50 was greater than 20000 nM.

The same assay, now with this note: inhibition of Axl activity, phospho-Akt in-cell Western assay; Table 1.
Molecule `CC(C)Oc1ccc(C(=O)n2nc(Nc3ccc(OCCN4CCCC4)cc3)nc2N)cc1` [(Ia-2), 5-amino-1-(4-(iso-propoxy)phenyl)carbonyl-3-[4-[2-(pyrrolidin-1-yl)ethoxy]phenylamino]-1H-1,2,4-triazole] had an IC50 of less than 1000 nM.
